Drawing on patent publication US20230322846A9, “NEUROACTIVE STEROIDS AND THEIR METHODS OF USE” (SAGE THERAPEUTICS, INC., priority 2018, published 2023), this text covers IC50 for 22 molecules.

pIC50: −log10 of the molar value.

The target in this assay is [35S]-TBPS binding, rat brain cortical membranes. Kind of assay: Steroid inhibition of [35S]-TBPS binding. To be noted: 3 nM [35S]-TBPS, in the presence of 5 mM GABA. Summed up:
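In the presence of […], compounds (DMSO 0.5% final) competed with 3 nM [35S]-TBPS for Sprague-Dawley rat cortical membranes, pH 7.4 phosphate buffer, 90 min, room temperature. Filtration and scintillation counting; specific binding defined by […]; IC50 and maximal inhibition fitted per experiment, averaged as mean ± SEM.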
As to `CCOC[C@@]1(O)CC[C@H]2[C@H](CC[C@@H]3[C@@H]2CC[C@]2(C)[C@@H]([C@H](C)Cn4ccnn4)CC[C@@H]32)C1` [Example 267, (3R,5R,8R,9R,10S,13S,14S,17R)-17-((S)-1-(1H-1,2,3-triazol-1-yl)propan-2-yl)-3-(ethoxymethyl)-13-methylhexadecahydro-11H-cyclopenta[a]phenanthren-3-ol], the pIC50 was over 7.00.
The result for `CCOC[C@@]1(O)CC[C@H]2[C@H](CC[C@@H]3[C@@H]2CC[C@]2(C)[C@@H]([C@@H](C)Cn4ccnn4)CC[C@@H]32)C1` [Example 268, (3R,5R,8R,9R,10S,13S,14S,17R)-17-((R)-1-(1H-1,2,3-triazol-1-yl)propan-2-yl)-3-(ethoxymethyl)-13-methylhexadecahydro-1H-cyclopenta[a]phenanthren-3-ol] reads over 7.00; that for `CCOC[C@@]1(O)CC[C@H]2[C@H](CC[C@@H]3[C@@H]2CC[C@]2(C)[C@@H]([C@@H](C)Cn4cc(C#N)cn4)CC[C@@H]32)C1` [Example 269, 1-((R)-2-((3R,5R,8R,9R,10S,13S,14S,17R)-3-(ethoxymethyl)-3-hydroxy-13-methylhexadecahydro-1H-cyclopenta[a]phenanthren-17-yl)propyl)-1H-pyrazole-4-carbonitrile], over 7.00; that for `CC[C@@]1(O)CC[C@H]2[C@H](CC[C@@H]3[C@@H]2CC[C@]2(C)[C@@H]([C@H](C)Cn4ccc(C#N)n4)CC[C@@H]32)C1` [Example 271, 1-((S)-2-((3R,5R,8R,9R,10S,13S,14S,17R)-3-ethyl-3-hydroxy-13-methylhexadecahydro-1H-cyclopenta[a]phenanthren-17-yl)propyl)-1H-pyrazole-3-carbonitrile], over 7.00.
The same measure for `CC[C@@]1(O)CC[C@H]2[C@H](CC[C@@H]3[C@@H]2CC[C@]2(C)[C@@H]([C@@H](C)Cn4nccc4C#N)CC[C@@H]32)C1` [Example 273, 1-((R)-2-((3R,5R,8R,9R,10S,13S,14S,17R)-3-ethyl-3-hydroxy-13-methylhexadecahydro-1H-cyclopenta[a]phenanthren-17-yl)propyl)-1H-pyrazole-5-carbonitrile]: over 7.00.
The result for `CC[C@@]1(O)CC[C@H]2[C@H](CC[C@@H]3[C@@H]2CC[C@]2(C)[C@@H]([C@H](C)Cn4nccc4C#N)CC[C@@H]32)C1` [Example 274, 1-((S)-2-((3R,5R,8R,9R,10S,13S,14S,17R)-3-ethyl-3-hydroxy-13-methylhexadecahydro-1H-cyclopenta[a]phenanthren-17-yl)propyl)-1H-pyrazole-5-carbonitrile] reads 6.00 to 7.00; that for `CC[C@@]1(O)CC[C@H]2[C@H](CC[C@@H]3[C@@H]2CC[C@]2(C)[C@@H]([C@@H](C)Cn4cc(C#N)cn4)CC[C@@H]32)C1` [Example 275, 1-((R)-2-((3R,5R,8R,9R,10S,13S,14S,17R)-3-ethyl-3-hydroxy-13-methylhexadecahydro-1H-cyclopenta[a]phenanthren-17-yl)propyl)-1H-pyrazole-4-carbonitrile], over 7.00.
In the case of `CCOC[C@@]1(O)CC[C@@]2(C)[C@H](CC[C@@H]3[C@@H]2CC[C@]2(C)[C@@H]([C@@H](C)Cn4ccc(C#N)n4)CC[C@@H]32)C1` [Example 279, 1-((R)-2-((3R,5R,8R,9S,10S,13S,14S,17R)-3-(ethoxymethyl)-3-hydroxy-10,13-dimethylhexadecahydro-1H-cyclopenta[a]phenanthren-17-yl)propyl)-1H-pyrazole-3-carbonitrile], the pIC50 was over 7.00.
Take `COC[C@@]1(O)CC[C@@]2(C)[C@H](CC[C@@H]3[C@@H]2[C@H](O)C[C@]2(C)[C@@H]([C@H](C)Cn4cc(C#N)cn4)CC[C@@H]32)C1` [Example 282, 1-((S)-2-((3R,5R,8S,9S,10S,11R,13S,14S,17R)-3,11-dihydroxy-3-(methoxymethyl)-10,13-dimethylhexadecahydro-1H-cyclopenta[a]phenanthren-17-yl)propyl)-1H-pyrazole-4-carbonitrile]: the pIC50 is 6.00 to 7.00.
The same measure for `COC[C@@]1(O)CC[C@@]2(C)[C@H](CC[C@@H]3[C@@H]2[C@H](O)C[C@]2(C)[C@@H]([C@@H](C)Cn4cc(C#N)cn4)CC[C@@H]32)C1` [Example 283, 1-((R)-2-((3R,5R,8S,9S,10S,11R,13S,14S,17R)-3,11-dihydroxy-3-(methoxymethyl)-10,13-dimethylhexadecahydro-1H-cyclopenta[a]phenanthren-17-yl)propyl)-1H-pyrazole-4-carbonitrile]: 6.00 to 7.00; for `CCOC[C@@]1(O)CC[C@H]2[C@H](CC[C@@H]3[C@@H]2CC[C@]2(C)[C@@H]([C@@H](C)Cn4nccc4C#N)CC[C@@H]32)C1` [Example 285, 1-((R)-2-((3R,5R,8R,9R,10S,13S,14S,17R)-3-(ethoxymethyl)-3-hydroxy-13-methylhexadecahydro-1H-cyclopenta[a]phenanthren-17-yl)propyl)-1H-pyrazole-5-carbonitrile]: over 7.00.
The same measure for `CCOC[C@@]1(O)CC[C@H]2[C@H](CC[C@@H]3[C@@H]2CC[C@]2(C)[C@@H]([C@@H](C)Cn4ccc(C#N)n4)CC[C@@H]32)C1` [Example 288, 1-((R)-2-((3R,5R,8R,9R,10S,13S,14S,17R)-3-(ethoxymethyl)-3-hydroxy-13-methylhexadecahydro-1H-cyclopenta[a]phenanthren-17-yl)propyl)-1H-pyrazole-3-carbonitrile]: over 7.00; for `CCOC[C@@]1(O)CC[C@H]2[C@H](CC[C@@H]3[C@@H]2CC[C@]2(C)[C@@H]([C@H](C)Cn4nnc(C)n4)CC[C@@H]32)C1` [Example 289, (3R,5R,8R,9R,10S,13S,14S,17R)-3-(ethoxymethyl)-13-methyl-17-((S)-1-(5-methyl-2H-tetrazol-2-yl)propan-2-yl)hexadecahydro-1H-cyclopenta[a]phenanthren-3-ol]: over 7.00.
The same measure for `CCOC[C@@]1(O)CC[C@H]2[C@H](CC[C@@H]3[C@@H]2CC[C@]2(C)[C@@H]([C@@H](C)Cn4nnc(C)n4)CC[C@@H]32)C1` [Example 290, (3R,5R,8R,9R,10S,13S,14S,17R)-3-(ethoxymethyl)-13-methyl-17-((R)-1-(5-methyl-2H-tetrazol-2-yl)propan-2-yl)hexadecahydro-1H-cyclopenta[a]phenanthren-3-ol]: over 7.00; for `COC[C@@]1(O)CC[C@H]2[C@@H](CC[C@@H]3[C@@H]2CC[C@]2(C)[C@@H](CCn4nnc(C)n4)CC[C@@H]32)C1` [Example 295, (3R,5S,8R,9R,10S,13R,14S,17R)-3-(methoxymethyl)-13-methyl-17-(2-(5-methyl-2H-tetrazol-2-yl)ethyl)hexadecahydro-1H-cyclopenta[a]phenanthren-3-ol]: over 7.00; for `COC[C@@]1(O)CC[C@H]2[C@@H](CC[C@@H]3[C@@H]2CC[C@]2(C)[C@@H](CCn4nnnc4C)CC[C@@H]32)C1` [Example 296, (3R,5S,8R,9R,10S,13R,14S,17R)-3-(methoxymethyl)-13-methyl-17-(2-(5-methyl-1H-tetrazol-1-yl)ethyl)hexadecahydro-1H-cyclopenta[a]phenanthren-3-ol]: over 7.00.
Turning to `COC[C@@]1(O)CC[C@H]2[C@@H](CC[C@@H]3[C@@H]2CC[C@]2(C)[C@@H](CCn4nccn4)CC[C@@H]32)C1` [Example 297, (3R,5S,8R,9R,10S,13R,14S,17R)-17-(2-(2H-1,2,3-triazol-2-yl)ethyl)-3-(methoxymethyl)-13-methylhexadecahydro-1H-cyclopenta[a]phenanthren-3-ol], the pIC50 was over 7.00.
The same measure for `COC[C@@]1(O)CC[C@H]2[C@@H](CC[C@@H]3[C@@H]2CC[C@]2(C)[C@@H](CCn4ccnn4)CC[C@@H]32)C1` [Example 298, (3R,5S,8R,9R,10S,13R,14S,17R)-17-(2-(1H-1,2,3-triazol-1-yl)ethyl)-3-(methoxymethyl)-13-methylhexadecahydro-1H-cyclopenta[a]phenanthren-3-ol]: over 7.00; for `CC(C)C[C@@]1(O)CC[C@H]2[C@H](CC[C@@H]3[C@@H]2CC[C@]2(C)[C@@H]([C@H](C)Cn4cc(C#N)cn4)CC[C@@H]32)C1` [Example 300, 1-((S)-2-((3S,5R,8R,9R,10S,13S,14S,17R)-3-hydroxy-3-isobutyl-13-methylhexadecahydro-1H-cyclopenta[a]phenanthren-17-yl)propyl)-1H-pyrazole-4-carbonitrile]: over 7.00.
As for `CCC[C@@]1(O)CC[C@@]2(CC)[C@H](CC[C@H]3[C@@H]4CC[C@H]([C@@H](C)Cn5cc(C#N)cn5)[C@@]4(C)CC[C@@H]32)C1` [Example 301, 1-((R)-2-((3R,5R,8S,9S,10S,13S,14S,17R)-10-ethyl-3-hydroxy-13-methyl-3-propylhexadecahydro-1H-cyclopenta[a]phenanthren-17-yl)propyl)-1H-pyrazole-4-carbonitrile], the pIC50 is over 7.00.
The same measure for `CCC[C@@]1(O)CC[C@@]2(CC)[C@H](CC[C@H]3[C@@H]4CC[C@H]([C@H](C)Cn5cc(C#N)cn5)[C@@]4(C)CC[C@@H]32)C1` [Example 302, 1-((S)-2-((3R,5R,8S,9S,10S,13S,14S,17R)-10-ethyl-3-hydroxy-13-methyl-3-propylhexadecahydro-1H-cyclopenta[a]phenanthren-17-yl)propyl)-1H-pyrazole-4-carbonitrile]: over 7.00; for `C[C@H](Cn1cc(C#N)cn1)[C@H]1CC[C@H]2[C@@H]3CC[C@@H]4C[C@@](O)(CC5CC5)CC[C@@H]4[C@H]3CC[C@]12C` [Example 304, 1-((S)-2-((3S,5R,8R,9R,10S,13S,14S,17R)-3-(cyclopropylmethyl)-3-hydroxy-13-methylhexadecahydro-1H-cyclopenta[a]phenanthren-17-yl)propyl)-1H-pyrazole-4-carbonitrile]: over 7.00.

As a reminder, the pIC50 is −log10 of the IC50, conventionally taken in molar units.
